Residue numbers refer to the chain shown, from its start.

Results on 5 molecules are retold here after patent US12331106B2, “Anti-angiopoietin-2 antibodies that induce Tie2 activation” (Institute for Basic Science, priority 2018, dated 2025).

Assay [1] deals with choroidal neovascularization (CNV). Kind of assay: Laser-induced CNV model, intravitreal injection: CNV regression and vascular leakage. The format is in vivo, mice. The settings on record: 5 μg intravitreal at 7 days. How it is done:
2C8H11 antibody was tested for its ability to inhibit choroidal neovascularization (CNV), the hallmark of wet age-related macular degeneration (AMD) using laser-induced CNV model. After dilation of pupils with 5 mg/ml phenylephrine and 5 mg/ml tropicamide eye drops (Santen Pharmaceutical) and instillation of 0.5% proparacaine hydrochloride eye drops (Alcon) for topical anesthesia, laser photocoagulator (Lumenis Inc.) with a slit lamp delivery system was used with a glass coverslip as a contact lens to visualize the retina. Sufficient laser energy (532 nm wavelength, 250 mW power, 100 ms duration, 50 μm spot size) was delivered in 4 locations for each eye (the 3, 6, 9 and 12 o'clock positions of the posterior pole). Only burns that produced a bubble at the time of laser photocoagulation, indicating the rupture of the Bruch's membrane, were included in this study. Spots containing hemorrhage at the laser site were excluded from the analysis. To recapitulate a clinical situation, 2C8H11 (5 μg) was administered intravitreally to the mice at 7 days after laser photocoagulation (FIG. 13A). As a control or as for comparison, Fc or VEGF-Trap (5 μg each) was administered in the same manner to the mice. To intravitreally administer indicated reagents, ˜1 μl (5 mg/ml) containing 5 μg of each reagent was injected into the vitreal cavity using the Nanoliter 2000 micro-injector (World Precision Instruments) fitted with a glass capillary pipette. CD31+CNV volumes of the retinal pigment epithelium (RPE)-choroid-sclera flat mounts were calculated using the MATLAB® Image Processing Toolbox™ (Math Works, a comprehensive set of reference-standard algorithms and workflow apps for image processing, analysis, visualization, and algorithm development) at 14 days after laser photocoagulation. Anti-CD31 antibody (1:200, Millipore®) was used for the detection of endothelial cells of CNV. […] Combined fluorescein angiography (FA) and indocyanine green angiography (ICGA) enabled us to measure vascular leakage at the neovessels around the laser injury site. Continuous-wave laser modules at 488 nm and 785 nm were used as excitation sources for fluorescein and ICG, respectively. A raster scanning pattern of excitation lasers was achieved by a scanner system consisting of a rotating polygonal mirror (MC-5; Lincoln Laser) and a galvanometer-based scanning mirror (6230H; Cambridge technology), and delivered to the back aperture of an imaging lens. A high numerical aperture (NA) objective lens (PlanApo λ, NA 0.75; Nikon) was used as the imaging lens to provide wide-field fundus fluorescence images. Fluorescence signals detected by photomultiplier tubes (R9110; Hamamatsu Photonics) were digitized by frame grabber and reconstructed to images with size of 512×512 pixels per frame in real time. To visualize late-phase (6 min) FA and ICGA images utilizing the angiography system, 10 mg of fluorescein sodium (Alcon) and 0.15 mg of ICG (Daiichi Pharmaceutical) were administered intraperitoneally and intravenously, respectively. The imaging procedure was performed under systemic anesthesia and pupil dilation to improve the quality of images. Leaky areas from CNV were calculated as the total measured hyperfluorescent areas in FA images divided by the total measured CNV areas in ICGA images using a Java-based imaging software (ImajeJ; National Institutes of Health). […] Thus, the magnitude of the suppression of CNV and vascular leakage was quantitatively indistinguishable between VEGF-Trap and 2C8H11 in the mouse model of laser-induced CNV.

For assay [2], the system named is choroidal neovascularization (CNV) / choriocapillaris. Kind of assay: Laser-induced CNV model, OCTA: CNV volume and choriocapillary regeneration (avascular space). The class given is in vivo, mice. To be noted: for increased avascular space: 5 μg intravitreal at 7 days. How it is done:
To determine the effect of 2C8H11 in CNV regression and choriocapillary regeneration after establishment of CNV, Fc, VEGF-Trap, control antibody or 2C8H11 (5 μg each) was given intravitreally to the mice by the Nanoliter 2000 micro-injector (World Precision Instruments) at 7 days after laser photocoagulation. Intra-vital optical coherence tomography angiography (OCTA) was performed at 6, 14, 21, and 35 days after laser photocoagulation (FIG. 14A). The retinochoroidal layers were imaged using a prototype high-speed swept-source optical coherence tomography (OCT) system, utilizing a custom ring cavity wavelength-swept laser centered at 1048 nm with an A-scan rate of 230 kHz. OCT images were collected in a 1.7 mm×1.7 mm field of view within the retino-choroidal layer to monitor regeneration of choroidal vasculatures at the site of laser photocoagulation after intravitreal injection of reagents. […] Then, by using automatic layer flattening and segmentation algorithms, cross-sectional OCT angiograms were flattened to RPE, and en face OCT angiograms were generated by separate projection of each flattened cross-sectional OCT angiogram in three depth ranges: inner retinal, outer retinal and choroidal layers. The outer plexiform layer and Bruch's membrane were defined as the boundaries separating inner retinal, outer retinal, and choroidal layers. The density of retina and choroid vessel was automatically calculated as the proportion of measured area occupied by flowing blood vessels defined as pixels having decorrelation values above the threshold level. Avascular pixels were detected from the en face OCT angiogram representing choroidal layer by means of the image processing toolbox of MATLAB® (Math Works). Then the total volume of the avascular space surrounding the laser injury site was calculated by summing the number of avascular pixels multiplied by the volume of one pixel. In order to analyze the changing complexion of avascular space volume, serially measured values in each eye were transformed into percentage change from baseline value. […] Overall, these findings indicate that both 2C8H11 and […] promotes regeneration of the choriocapillaris, while VEGF-Trap leads to choriocapillary regression in the laser-induced CNV model.

The subject of assay [3] is Tie2 receptor clustering / FOXO1 translocation in HUVECs. The assay is described as follows: Tie2 clustering and FOXO1 translocation in HUVECs (immunofluorescence). The class given is cell-based, human. The settings on record: HUVECs; 30 min; compared to serum-starved control. The method, then:
Tie2 clustering at cell-cell junction area and FOXO1 translocation from nucleus to cytosol by anti-Ang2 antibodies were examined in HUVECs by immunofluorescence. Specifically, HUVECs were seeded on 8 well slide chamber (Lab-Tek™ II) and maintained in EGM-2 medium for 2-3 days. At 100% confluence, the cells were serum starved with EBM-2 medium for 4 hrs and then treated with 1 μg/ml anti-Ang2 antibodies together with 1 μg/ml of hAng2 for 30 min. Thereafter, the cells were fixed with 4% formaldehyde in PBS at room temperature (RT) for 10 min, permeabilized with 0.1% TRITON™ X-100 (non-ionic polyoxyethylene surfactant) in PBS, blocked with 1% BSA in PBS at RT for 60 min, and incubated with primary antibodies at RT for 1 hr. The primary antibodies for hTie2, FOXO1, and Human Fc were used. The cells were then incubated with secondary antibodies (Invitrogen) in the dark at RT for 1 hr and mounted with VECTASHIELD® mounting medium with DAPI (Vector Labs, antifade mounting media optimized for immunofluorescence applications). Images were taken with a laser scanning confocal microscope (LSM880, Carl Zeiss).
2C8H11-induced Tie2 clustering and FOXO1 translocation was examined in a time-course study (from 10 min to 240 min). […] 6-4: Inhibition of Vascular Permeability by Humanized Anti-Ang2 Antibodies

The target in the next assay is T1, hAng2 (Homo sapiens, UniProt O15123).
T1 sequence (O15123 19-496): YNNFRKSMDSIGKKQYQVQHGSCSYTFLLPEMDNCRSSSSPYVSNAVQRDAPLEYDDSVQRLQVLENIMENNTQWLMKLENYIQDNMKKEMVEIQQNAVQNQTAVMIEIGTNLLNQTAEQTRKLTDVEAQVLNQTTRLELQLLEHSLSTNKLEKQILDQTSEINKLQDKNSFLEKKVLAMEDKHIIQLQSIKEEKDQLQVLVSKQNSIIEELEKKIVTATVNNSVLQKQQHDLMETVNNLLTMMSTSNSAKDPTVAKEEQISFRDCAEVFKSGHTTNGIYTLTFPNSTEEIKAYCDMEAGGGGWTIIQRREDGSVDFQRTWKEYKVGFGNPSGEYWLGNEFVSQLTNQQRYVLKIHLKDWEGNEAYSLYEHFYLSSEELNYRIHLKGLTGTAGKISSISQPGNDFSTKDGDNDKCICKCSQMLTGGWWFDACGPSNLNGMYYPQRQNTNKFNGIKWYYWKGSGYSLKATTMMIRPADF
Kind of assay: OCTET affinity of humanized anti-Ang2 antibodies against hAng2. To be noted: OCTET, antibody fixed on AR2G biosensor, hAng2 50-0 nM, 1:1 binding model. The class given is binding. How it is done:
The affinity of humanized anti-Ang2 antibody against hAng2 was measured using OCTET® system (ForteBio). Specifically, buffer and samples were measured in total 200 μl/well using Black 96-well plates (96 well F-type black plates, Greiner). The biosensor used for affinity measurements was hydrated for 10 min before measurement with AR2G tip (ForteBio OCTET®). After the hydration, humanized anti-Ang2 antibody was diluted in 10 mM sodium acetate, pH 6.0 buffer at a concentration of 10 μg/ml, fixed on AR2G biosensor, and blocked with 1M ethanolamine. The recombinant hAng2 was diluted to 50, 25, 12.5, 6.25, 3.125, and 0 nM with 1× kinetic buffer, and subjected to association for 300 sec and dissociation for 900 sec. For affinity measurement (KD), association rate (K-on) and dissociation rate (K-off) were analyzed by binding curve (global) and fitted to 1:1 binding model using OCTET® data analysis v9.0.0.10 program.
The affinities of humanized 2C8 antibodies to hAng2 were in Table 15.

With “VEGF-Trap: VEGF-Trap, comparison agent given intravitreally, 5 μg [reference compound]”, the “vascular leakage suppression compared with Fc” value in assay [1] (FA/ICGA, 14 days after laser photocoagulation) turned out to be 37.0%. The “CNV regression compared with Fc (CD31+ CNV volume)” value in assay [1] (measured 14 days after laser photocoagulation) is recorded as 64.4%. Further, in assay [1] (within-group), the “vascular leakage reduction between 6 and 14 days after laser photocoagulation” value amounted to 45.6%. In addition, the “CNV volume in outer retinas (OCTA)” value in assay [2] (5 μg intravitreal at 7 days after laser photocoagulation) is “markedly reduced CNV volume”. Moreover, the increased avascular space in assay [2] (D14) is recorded as 11.4%; in assay [2] (D21), 16.0%; in assay [2] (D35) it was 18.1%.

B1: Ang2: full-length human angiopoietin-2 protein (R&D Systems), Tie2 ligand, SEQ ID NO: 1 (protein)
chain: MWQIVFFTLSCDLVLAAAYNNFRKSMDSIGKKQYQVQHGSCSYTFLLPEMDNCRSSSSPYVSNAVQRDAPLEYDDSVQRLQVLENIMENNTQWLMKLENYIQDNMKKEMVEIQQNAVQNQTAVMIEIGTNLLNQTAEQTRKLTDVEAQVLNQTTRLELQLLEHSLSTNKLEKQILDQTSEINKLQDKNSFLEKKVLAMEDKHIIQLQSIKEEKDQLQVLVSKQNSIIEELEKKIVTATVNNSVLQKQQHDLMETVNNLLTMMSTSNSAKDPTVAKEEQISFRDCAEVFKSGHTTNGIYTLTFPNSTEEIKAYCDMEAGGGGWTIIQRREDGSVDFQRTWKEYKVGFGNPSGEYWLGNEFVSQLTNQQRYVLKIHLKDWEGNEAYSLYEHFYLSSEELNYRIHLKGLTGTAGKISSISQPGNDFSTKDGDNDKCICKCSQMLTGGWWFDACGPSNLNGMYYPQRQNTNKFNGIKWYYWKGSGYSLKATTMMIRPADF
modifications: Human Angiopoietin-2 full-length
Consider B1, for which the “FOXO1 translocation from nucleus to cytosol” value in assay [3] is “negligibly induced”.

B2: 2C8H31: humanized anti-Ang2 antibody from mouse 2C8; VH SEQ ID NO: 63, VL SEQ ID NO: 64 (antibody, V domains shown)
VH: QVQLVQSGAEVKKPGASVKVSCKASGYSFTSYWMHWVRQAPGQGLEWIGMIDPSDSETRLNQKFKDKASMTRDTSTSTVYMELSSLRSEDTAVYYCARRFYYGSDWYFDVWGQGTLVTVSS
VL: DIQLTQSPSFLSASVGDRVTITCKASQDVGTAVAWYQQKPGKAPKLLIYWASTRHTGVPSRFSGSGSGTEFTLTISSLQPEDFATYYCQQYSSYPLTFGQGTKVEIK
modifications: VH; VL
For the molecule B2, in the assay with hAng2, the Kdis worked out at 2.21e-05 s⁻¹ and the Kon amounted to 83200 M⁻¹ s⁻¹.

B3: 2C8H41: humanized anti-Ang2 antibody from mouse 2C8; VH SEQ ID NO: 67, VL SEQ ID NO: 68 (antibody, V domains shown)
VH: B2 VH with R38K
VL: B2 VL
modifications: VH; VL
For the molecule B3, in the assay with hAng2, the Kdis amounted to 1.67e-05 s⁻¹ and the Kon came out at 67000 M⁻¹ s⁻¹.

B4: 2C8H51: humanized anti-Ang2 antibody from mouse 2C8; VH SEQ ID NO: 71, VL SEQ ID NO: 72 (antibody, V domains shown)
VH: B2 VH with R38K, M70L, R72V
VL: B2 VL
modifications: VH; VL
For B4, in the assay with hAng2, the Kdis came out at 9.61e-06 s⁻¹ and the Kon stood at 70200 M⁻¹ s⁻¹.
